Legend:
mouse (Cox Standard) = assay: mouse hot plate test (mouse jump); type: in vivo; conditions: subcutaneous injection, hot plate 52° C., 15 minutes after administration
enkephalin (δ) receptor = biological target: T1, enkephalin (δ) receptor (Mus musculus, UniProt P32300); assay: mouse vas deferens assay; type: tissue-based; conditions: concentration causing depression of 50% of the electrically evoked contraction; field stimulation 0.15 Hz, 1 msec., 40 V; 37° C.
T1 construct: from tissue; host or cells: isolated mouse vas deferens (Cox mice, 30-40 g)
Method: In the mouse vas deferens test, single mouse vas deferens from mature mice (Cox, 30-40 g.) are suspended in 3 ml. of modified Kreb's solution aerated with 95% O2 -5% CO2 and maintained at 37° C. The twitch induced by field stimulation (0.15 Hz, 1 msec., 40 V) is recorded on a polygraph via an isometric transducer. The test compound is added to the bath in 20 to 30 μl. aliquots. A dose-response curve is constructed by cumulative addition of appropriate amounts of the compound to the bath. Comparison of relative agonist potency at the δ receptor is made on the basis of IC50 values (concentration causing depression of 50% of the electrically evoked contraction).

T1 sequence (P32300 whole entry): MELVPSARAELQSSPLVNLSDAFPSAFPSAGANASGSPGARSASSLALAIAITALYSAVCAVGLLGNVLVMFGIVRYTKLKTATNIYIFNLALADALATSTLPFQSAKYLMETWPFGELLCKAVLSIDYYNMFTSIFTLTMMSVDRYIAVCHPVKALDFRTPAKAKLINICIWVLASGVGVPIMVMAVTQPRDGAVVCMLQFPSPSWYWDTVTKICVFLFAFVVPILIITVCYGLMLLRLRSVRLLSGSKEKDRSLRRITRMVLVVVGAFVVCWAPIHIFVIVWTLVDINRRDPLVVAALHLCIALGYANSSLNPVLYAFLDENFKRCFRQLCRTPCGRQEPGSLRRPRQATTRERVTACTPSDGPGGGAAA

Row | Structure (SMILES) | Mouse Jump ED50 (mouse (Cox Standard); Cox Standard mice) | IC50 (enkephalin (δ) receptor) | Mouse Jump ED50 (mouse (Cox Standard); run using Harlan ND4 mice)
1 | CSCC[C@@H](C(N)=O)N(C)C(=O)[C@H](Cc1cccc(Br)c1)NC(=O)CNC(=O)[C@@H](C)NC(=O)[C@@H](N)Cc1ccc(O)cc1 [Br, L-Tyrosyl-D-alanyl-glycyl-L-m-bromophenylalanyl-L-(N^α -methyl)methioninamide] | 0.36 mg/kg | 0.49 nM | 
2 | CSCC[C@@H](C(N)=O)N(C)C(=O)[C@H](Cc1cccc(C(F)(F)F)c1)NC(=O)CNC(=O)[C@@H](C)NC(=O)[C@@H](N)Cc1ccc(O)cc1 [CF3, L-Tyrosyl-D-alanyl-glycyl-L-m-trifluoro-methylphenylalanyl-L-(N^α-methyl)methioninamide] | 0.33 mg/kg | 1.78 nM | 
3 | CSCC[C@@H](C(N)=O)N(C)C(=O)[C@H](Cc1cccc(C)c1)NC(=O)CNC(=O)[C@@H](C)NC(=O)[C@@H](N)Cc1ccc(O)cc1 [CH3, L-Tyrosyl-D-alanyl-glycyl-L-m-methylphenylalanyl-L-(N^α -methyl)methioninamide] | 0.33 mg/kg | 2.73 nM | 
4 | CSCC[C@@H](C(N)=O)N(C)C(=O)[C@H](Cc1cccc(Cl)c1)NC(=O)CNC(=O)[C@@H](C)NC(=O)[C@@H](N)Cc1ccc(O)cc1 [Cl, L-Tyrosyl-D-alanyl-glycyl-L-m-chlorophenylalanyl-L-(N^α -methyl)methioninamide] | 0.11 mg/kg | 0.71 nM | 
5 | CSCC[C@@H](C(N)=O)N(C)C(=O)[C@H](Cc1ccccc1)NC(=O)CNC(=O)[C@@H](C)NC(=O)[C@@H](N)Cc1ccc(O)cc1 [H, reference compound] | 0.36 mg/kg | 12.2 nM | 
6 | CSCC[C@@H](C(N)=O)N(C)C(=O)[C@H](Cc1cccc(I)c1)NC(=O)CNC(=O)[C@@H](C)NC(=O)[C@@H](N)Cc1ccc(O)cc1 [I, H-L-Tyr-D-Ala-Gly-L-Phe(I)-L-(N-Me)Met-NH2] |  | 2.1 nM | 
7 | COc1cccc(C[C@H](NC(=O)CNC(=O)[C@@H](C)NC(=O)[C@@H](N)Cc2ccc(O)cc2)C(=O)N(C)[C@@H](CCSC)C(N)=O)c1 [OMe, L-Tyrosyl-D-alanyl-glycyl-L-m-methoxyphenylalanyl-L-(N^α -methyl)methioninamide] |  | 2.92 nM | 0.15 mg/kg
